Experimental data from patent publication US10905769B2, “Peptide and peptide mimetic binding antagonists of polo-like kinase 1 polo box domain and methods of use” (priority 2015, dated 2021).
Read-outs that look alike come from different tables or passages of the source. Peptide text beside a SMILES is read from it.

Tests used:
[1] = target: T1, Plk1 PBD (Homo sapiens, UniProt P53350); assay: biochemical; type: binding; design: and Plk1 PBD (Plasmid #41162) (45) linked to a 3× myc tagged; host or cells: HEK293T, crude cytosolic lysate; settings: Cell Lysate ELISA IC50 (μM)
Protocol: HEK293T cells were plated on 10 cm culture dishes at 4M cells per plate. Following 24 h, the cells were transfected with 10 μg of plasmid DNA using 20 μL of TurboFect transfection reagent (Pierce Biotechnology) according to the manufacturer's instructions. Following 24 h, the cells were harvested using trypsin, washed with phosphate-buffered saline (PBS) 7.4 buffer, and lysed in lysis buffer (PBS 7.4+0.5% NP-40+protease/phosphatase inhibitor cocktail (Pierce Biotechnology)) using 3 freeze/thaw cycles. The lysed suspension was centrifuged at 10,000×G for 10 minutes to pellet membrane proteins and nuclei. The supernatant was removed to provide a crude cytosolic lysate containing expressed myc-tagged Plk1 or Plk1 PBD. The total protein concetration was determined using a Bicinchoninic Acid (BCA) assay kit (Pierce Biotechnology).
All assay steps were performed at room temperature with gentle shaking. A biotinylated phosphopeptide (sequence: Biotin-Ahx-PMQS(pT)PLN-NH2) (46-48) was diluted with PBS 7.4 to 1 μM (from a 10 mM dimethylsulfoxide (DMSO) stock solution) and loaded onto the wells of a 96-well Neutravidin-coated plate (Pierce Biotechnology) at 100 μL per well for 1 hour. The wells were washed once with 150 μL PBST (PBS 7.4+0.05% Tween-20), and then 100 μL of 1% bovine serum albumin (BSA) in PBS 7.4 (blocking buffer) were added for 1 hour. The cytosolic lysate containing myc-tagged protein was diluted to 300 μg/mL in PBS 7.4 containing protease/phosphatase inhibitors (Pierce Biotechnology), mixed with competitive inhibitor (from a 10× stock in 5% DMSO/PBS), and allowed to pre-incubate for 1 h (100 μL per well in a 96-well plate, 30 μg total protein). The blocked ELISA plate was washed 2× with PBST (150 μL) and the pre-incubated lysates were added to the plate to incubate for 1 hour. The wells were washed 4× with PBST (150 μL), then probed with anti-myc primary antibody (1:1500 dilution for assays that include macrocyclic peptidomimetic ligand of the present disclosure and 1:3000 dilution for all other assays, mouse monoclonal, Pierce Biotechnology) for 1 hour. […] The wells were then washed 5× with PBST (150 μL) and incubated with Turbo TMB-ELISA solution (Pierce Biotechnology) until the desired absorbance is reached (5-10 minutes). The reaction was quenched by the addition of 2M aq. H2SO4 and the absorbance was measured at 450 nm using a BioTek Synergy 2 96-well plate reader.
Compounds were evaluated for inhibition of Plk1 PBD binding to a pThrcontaining peptide by ELISA in cell lysates and by inhibition of cell proliferation in HeLa cells. Pmab=2(S)-amino-3(R)-methyl-4-phosphonobutanoic acid.
Target sequence in this assay (P53350 326-603 limits assumed): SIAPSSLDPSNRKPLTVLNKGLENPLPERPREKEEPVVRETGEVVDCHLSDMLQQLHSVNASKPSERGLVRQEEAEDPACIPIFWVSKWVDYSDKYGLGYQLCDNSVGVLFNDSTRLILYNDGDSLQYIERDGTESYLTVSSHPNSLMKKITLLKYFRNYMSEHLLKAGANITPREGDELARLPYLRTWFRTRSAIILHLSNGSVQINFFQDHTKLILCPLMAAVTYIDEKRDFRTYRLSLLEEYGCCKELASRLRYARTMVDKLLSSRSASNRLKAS

[2] = target: T2, full-length Plk1 (Homo sapiens, UniProt P53350); assay: ELISA inhibition assay: full-length Plk1 binding to immobilized pThr-containing peptide; settings: FIG. 5A/5B
T2 construct: Plasmids encoding full length Plk1 (Plasmid #41160); host or cells: HEK293T, crude cytosolic lysate
T2 sequence (P53350 whole entry): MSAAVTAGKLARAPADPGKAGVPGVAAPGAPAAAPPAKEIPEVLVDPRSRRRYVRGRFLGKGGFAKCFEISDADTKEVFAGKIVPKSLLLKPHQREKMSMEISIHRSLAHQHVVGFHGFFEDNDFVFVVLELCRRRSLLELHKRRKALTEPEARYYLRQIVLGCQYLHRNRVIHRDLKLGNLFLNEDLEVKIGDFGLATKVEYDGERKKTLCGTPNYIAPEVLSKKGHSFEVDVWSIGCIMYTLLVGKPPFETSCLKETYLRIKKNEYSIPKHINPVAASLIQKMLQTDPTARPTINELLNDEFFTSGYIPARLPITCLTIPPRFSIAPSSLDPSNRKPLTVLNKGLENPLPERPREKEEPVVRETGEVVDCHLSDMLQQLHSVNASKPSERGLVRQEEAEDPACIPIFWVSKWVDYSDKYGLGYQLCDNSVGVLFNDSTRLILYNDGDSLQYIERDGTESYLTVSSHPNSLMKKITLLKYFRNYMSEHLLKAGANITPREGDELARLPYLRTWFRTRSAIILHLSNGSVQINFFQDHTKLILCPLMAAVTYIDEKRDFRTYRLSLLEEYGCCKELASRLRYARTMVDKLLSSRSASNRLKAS

[3] = target: T1, Plk1 PBD; type: binding; design: host or cells: HEK293T, crude cytosolic lysate; settings: average ± SEM from five independent experiments
Target sequence in this assay (P53350 whole entry): as above
Protocol: All assay steps were performed at room temperature with gentle shaking. A biotinylated phosphopeptide (sequence: Biotin-Ahx-PMQS(pT)PLN-NH2) (46-48) was diluted with PBS 7.4 to 1 μM (from a 10 mM dimethylsulfoxide (DMSO) stock solution) and loaded onto the wells of a 96-well Neutravidin-coated plate (Pierce Biotechnology) at 100 μL per well for 1 hour. The wells were washed once with 150 μL PBST (PBS 7.4+0.05% Tween-20), and then 100 μL of 1% bovine serum albumin (BSA) in PBS 7.4 (blocking buffer) were added for 1 hour. The cytosolic lysate containing myc-tagged protein was diluted to 300 μg/mL in PBS 7.4 containing protease/phosphatase inhibitors (Pierce Biotechnology), mixed with competitive inhibitor (from a 10× stock in 5% DMSO/PBS), and allowed to pre-incubate for 1 h (100 μL per well in a 96-well plate, 30 μg total protein). […] The wells were then washed 5× with PBST (150 μL) and incubated with Turbo TMB-ELISA solution (Pierce Biotechnology) until the desired absorbance is reached (5-10 minutes). […] H2SO4 and the absorbance was measured at 450 nm using a BioTek Synergy 2 96-well plate reader.
Absorbance was plotted versus concentration (log M) and fit to a non-linear regression using GraphPad Prism 6 software (model: log(inhibitor) vs. response—Variable slope (four parameters)) to provide IC50 values. […]

[4] = Table 7, compounds 2 and 3 tested simultaneously for direct comparison

Row | SMILES | IC50 [1, 4] [µM] | inhibitory potency in competitive ELISA versus parent peptide 1 (4j) [2] | other results
1 | CC(=O)N1CCCC1C(=O)N[C@@H](CC(C)C)C(=O)N[C@@H](Cc1cncn1CCc1ccccc1)C(=O)N[C@@H](CO)C(=O)NC(C(N)=O)C(C)OP(=O)(O)O (stereo in doubt) [compound 3] | 0.023 |  | IC50 ([1]; Table 6): 0.017 µM
2 | CC(=O)N1CCC[C@H]1C(=O)N[C@@H](CC(C)C)C(=O)N[C@H]1C[C@H](CCCCCCCCc2ccccc2)C(=O)NCCC[C@@H](C(N)=O)NC(=O)[C@H]([C@@H](C)OP=O)NC(=O)[C@H](CO)NC1=O (some centres unmarked) [15a, cPLE*SpTO] (HELM PEPTIDE1{[ac].P.L.[O=C([C@H](C[C@H](CCCCCCCCc1ccccc1)C(=O)[*:3])N[*:1])[*:2]].S.[C[C@@H](OP=O)[C@H](N[*:1])C(=O)[*:2]].[Orn].[am]}$PEPTIDE1,PEPTIDE1,4:R3-7:R3$$$V2.0) |  | improved potencies versus the parent peptide 1 | 
3 | CC(=O)N1CCC[C@H]1C(=O)N[C@@H](CC(C)C)C(=O)N[C@H]1C[C@H](CCCCCCCCc2ccccc2)C(=O)NCCC[C@@H](C(N)=O)NC(=O)[C@H]([C@@H](C)OP=O)NC(=O)[C@H](CO)NC1=O (some centres unmarked) [15b, cPLE*SpTo] (HELM PEPTIDE1{[ac].P.L.[O=C([C@H](C[C@H](CCCCCCCCc1ccccc1)C(=O)[*:3])N[*:1])[*:2]].S.[C[C@@H](OP=O)[C@H](N[*:1])C(=O)[*:2]].[Orn].[am]}$PEPTIDE1,PEPTIDE1,4:R3-7:R3$$$V2.0) |  | dramatic reductions in potency | 
4 | CC(=O)N1CCC[C@H]1C(=O)N[C@@H](CC(C)C)C(=O)N[C@H]1C[C@H](CCCCCCCCc2ccccc2)C(=O)NCCCC[C@@H](C(N)=O)NC(=O)[C@H]([C@@H](C)OP=O)NC(=O)[C@H](CO)NC1=O (some centres unmarked) [15c, cPLE*SpTK] (HELM PEPTIDE1{[ac].P.L.[O=C([C@H](C[C@H](CCCCCCCCc1ccccc1)C(=O)[*:3])N[*:1])[*:2]].S.[C[C@@H](OP=O)[C@H](N[*:1])C(=O)[*:2]].K.[am]}$PEPTIDE1,PEPTIDE1,4:R3-7:R3$$$V2.0) |  | improved potencies versus the parent peptide 1 | 
5 | CC(=O)N1CCC[C@H]1C(=O)N[C@@H](CC(C)C)C(=O)N[C@H]1C[C@H](CCCCCCCCc2ccccc2)C(=O)NCCCC[C@H](C(N)=O)NC(=O)[C@H]([C@@H](C)OP=O)NC(=O)[C@H](CO)NC1=O (some centres unmarked) [15d, cPLE*SpTk] (HELM PEPTIDE1{[ac].P.L.[O=C([C@H](C[C@H](CCCCCCCCc1ccccc1)C(=O)[*:3])N[*:1])[*:2]].S.[C[C@@H](OP=O)[C@H](N[*:1])C(=O)[*:2]].[dK].[am]}$PEPTIDE1,PEPTIDE1,4:R3-7:R3$$$V2.0) |  | dramatic reductions in potency | 
6 | CC(=O)N1CCC[C@H]1C(=O)N[C@@H](CC(C)C)C(=O)N[C@@H](Cc1cncn1CCCCCCCCc1ccccc1)C(=O)N[C@@H](CO)C(=O)N[C@H](C(N)=O)[C@@H](Cc1ccccc1)CP(=O)(O)O [18d] (HELM PEPTIDE1{[ac].P.L.[O=C([C@H](Cc1cncn1CCCCCCCCc1ccccc1)N[*:1])[*:2]].S.[O=C([C@@H](N[*:1])[C@@H](Cc1ccccc1)CP(=O)(O)O)[*:2]].[am]}$$$$V2.0; N-terminus assumed) |  |  | IC50 [3]: 300 ± 80 nM
7 | CC(=O)N1CCC[C@H]1C(=O)N[C@@H](CC(C)C)C(=O)N[C@@H](Cc1cncn1CCCCCCCCc1ccccc1)C(=O)N[C@@H](CO)C(=O)N[C@H](C(N)=O)[C@@H](CCc1ccccc1)CP(=O)(O)O [18e] (HELM PEPTIDE1{[ac].P.L.[O=C([C@H](Cc1cncn1CCCCCCCCc1ccccc1)N[*:1])[*:2]].S.[O=C([C@@H](N[*:1])[C@@H](CCc1ccccc1)CP(=O)(O)O)[*:2]].[am]}$$$$V2.0; N-terminus assumed) |  |  | IC50 [3]: 70 ± 20 nM
8 | CC(=O)N1CCCC1C(=O)N[C@@H](CC(C)C)C(=O)N[C@@H](Cc1cncn1CCc1ccccc1)C(=O)N[C@@H](CO)C(=O)NC(C(N)=O)C(C)CP(=O)(O)O (some centres unmarked) [compound 4] |  |  | IC50 ([1]; Table 6): 0.02 µM
9 | CC(=O)N1CCCC1C(=O)N[C@@H](CC(C)C)C(=O)N[C@@H](Cc1cnc[nH]1)C(=O)N[C@@H](CO)C(=O)NC(C(N)=O)[C@@H](Cc1ccccc1)CP(=O)(O)O (some centres unmarked) [compound 15] (HELM PEPTIDE1{[ac].[O=C(C1CCCN1[*:1])[*:2]].L.H.S.[O=C(C(N[*:1])[C@@H](Cc1ccccc1)CP(=O)(O)O)[*:2]].[am]}$$$$V2.0) | 50 |  | 
10 | CC(=O)N1CCCC1C(=O)N[C@@H](CC(C)C)C(=O)N[C@@H](Cc1cncn1CCc1ccccc1)C(=O)N[C@@H](CO)C(=O)NC(C(N)=O)[C@@H](Cc1ccccc1)CP(=O)(O)O (some centres unmarked) [compound 16] | 0.035 |  | 
